Key:
[1] = tested on: RA-resistant neuroblastoma cells; assay: Clonogenic assay; assay type: cell-based; settings: 1 μM NEN with 1 μM RA, two weeks
Experimental: For the clonogenic assay, 500 cells were plated in 60 mm dishes. After 24 h, cells were treated with indicated conditions. After 14 days, the cells were fixed by 50% methanol in PBS for 15 minutes and stained by crystal violet staining solution (0.5% crystal violet and 25% methanol in PBS). The quantification was done by using countPHICS.

[2] = tested on: orthotopic neuroblastoma xenograft (SK-N-BE(2) cells); assay: Metabolite levels in orthotopic xenograft tumors by LC/MS; assay type: in vivo, mice; settings: diet 2000 ppm NEN vs control
Experimental: Metabolic analysis. For the metabolomics and isotope tracing analysis in vitro, cells were washed with cold PBS, lysed in 80% Ultra LC-MS acetonitrile on ice for 15 minutes, centrifuged at 20,000 g for 10 minutes at 4° C., and supernatant was subjected to mass spectrometry analysis. For the metabolomics analysis in vivo, 10-20 mg tissue were cut off on ice, rinsed if necessary to remove blood, and place in a 2 ml round-bottom cryovial. The tissues were homogenized by 3 times 10 s on/off bursts homogenization in 1 ml 80% methanol on dry ice. Transfer the homogenate to an Eppendorf tube and keep on liquid nitrogen while processing the remaining samples. Incubated all the samples in −80° C. for 30 minutes. After incubation, vortexed the samples for 5 seconds. Then centrifuged the samples at 20,000 g for 10 minutes at 4° C., and supernatant was subjected to mass spectrometry analysis. Resuspend the remaining cellular pellet in 100 ul protein lysis buffer and determine the protein concentration. Then calculate the total protein content per sample.
Liquid chromatography was performed using an Agilent 1290 Infinity LC system (Agilent, Santa Clara, US) coupled to a Q-TOF 6545 mass spectrometer (Agilent, Santa Clara, US). A hydrophilic interaction chromatography method (HILIC) with a BEH amide column (100×2.1 mm i.d., 1.7 μm; Waters) was used for compound separation at 35° C. with a flow rate of 0.3 ml/minutes. The mobile phase A consisted of 25 mM ammonium acetate and 25 mM ammonium hydroxide in water and mobile phase B was acetonitrile. The gradient elution was 0-1 minute, 85% B; 1-12 minutes, 85% B→65% B; 12-12.2 minutes, 65% B→40% B; 12.2-15 minutes, 40% B. After the gradient, the column was re-equilibrated at 85% B for 5 minutes. The overall runtime was 20 minutes, and the injection volume was 5 μL. […]
Mouse orthotopic neuroblastoma model. […] Tumor formation was monitored by non-invasive ultrasound measurements, and the animals euthanized when the tumor volume exceeded 1,000 mm^3.

NB16 cells = assay: Western blot of β-catenin and p53; assay type: cell-based; settings: NB16, 1 μM NEN 24 and 48 hrs
Experimental: (§1) Protein extraction and immunoblot. Cells were washed with ice-cold PBS buffer (Invitrogen, 20012050) and lysed with harvest buffer (10 mM Hepes pH 7.9, 50 mM NaCl, 500 mM sucrose, 0.1 mM EDTA and 0.5% Trition X-100) supplemented with 1% Halt inhibitors (Thermo Scientific™, 78443) for 10 minutes. Cell lysate was centrifuged at 3000 rpm for 3 min at 4° C. The supernatant containing cytosolic proteins was transferred to a different tube. The pellet containing nuclear proteins was dissolved with nuclear lysis buffer (10 mM Hepes pH 7.9, 0.5M NaCl, 0.1 mM EDTA, 0.1 mM EGTA and 0.1% NP40) supplemented with 1% Halt inhibitors (Thermo Scientific™, 78443) for 5 minutes at 4° C. Then the solution was sonicated at 4° C. for 6 cycles (1 cycle=30 s sonication and 30 s cooldown with “High” energy intensity) using a Bioruptor® Plus sonication (Diagenode, UCD-300). After sonication, the solution was centrifuged at 15,000 rpm for 10 minutes. The supernatant was kept as nuclear extraction. Protein concentration was determined by BCA assay (Thermo Scientific, 23227). 5 μg nuclear proteins or 7.5 μg cytosolic proteins were boiled in loading buffer with reducing reagents (Invitrogen, NuPAGE™ LDS Sample Buffer (4X), NP0007), then separated with SDS-PAGE (Nupage™ 4-12% Bis-Tris Protein Gels, 1.0 mm, Invitrogen™, NP0322BOX). Protein was transferred onto a nitrocellulose membrane (Thermo Scientific™, 88018). After blocking in 5% non-fat milk for 30 minutes at room temperature (RT), the primary antibody was added for incubation overnight at 4° C. After washing with TBST (CST, #9997, 1:10 diluted by deionized water) for 3 times, HRP-conjugated secondary antibodies were applied. Signals were detected with an ECL kit (Thermo Scientific™, 34577) by using BioRad Universal Hood II.

SK-N-BE(2) cells = assay: Western blot of β-catenin and p53; assay type: cell-based; settings: 1 μM NEN 24 and 48 hrs
Experimental: as §1

## O=C(Nc1ccc([N+](=O)[O-])cc1Cl)c1cc(Cl)ccc1O [NEN, 5-chloro-N-(2-chloro-4-nitrophenyl)-2-hydroxybenzamide compound with 2-aminoethanol (1:1)]
[1]
  inhibition of clonogenicity, NEN with RA: strong synergistic effect
[2]
  2-HG level in the tumor: reduced
  NAD+/NADH in the tumor: increased
  lactate level in the tumor: slightly reduced
NB16 cells
  expression of p53: increased
  expression of β-catenin (nuclear protein): reduced
SK-N-BE(2) cells
  expression of p53: increased
  expression of β-catenin (nuclear protein): reduced
